# Entries after “also recorded” stand apart in the source; their conditions may differ.
# Target: T1, human serum albumin (Homo sapiens, UniProt P02768)
# Assay: X-ray crystallography of human serum albumin/drug complexes: binding location
# Design: Domain I (1 through 192); Domain II (193 through 395);Domain III (396 THROUGH 585)
# Conditions: not given
# Source text: This information was derived from crystallization of the protein/ligand to create a protein/ligand complex and determining the atomic structure of the resulting complex by x-ray diffraction. The ligand may be any ligand capable of binding to the human serum albumin protein, and is preferably a ligand that binds to one of the binding sites described herein.
# One method of obtaining information regarding the structural; characteristics of the albumin binding regions is through protein crystallization processes.
# By applying standard crystallization protocols to the above described crystallizable compositions, crystals of the human serum albumin complex may be obtained. This, an even further aspect of this invention relates to a method of preparing human serum albumin complex-containing crystals. The method comprises the steps of • (a) obtaining a crystallizable composition comprising a human serum albumin protein, divalent cations, and a ligand capable of binding to the protein, and • (b) subjecting the composition of step (a) to conditions which promote crystallization.
# The “active site binding pockets” or “active site” of human serum albumin refers to one of several areas determined experimentally on the human serum albumin protein surface where substrates bind.
# T1 sequence (P02768 25-609): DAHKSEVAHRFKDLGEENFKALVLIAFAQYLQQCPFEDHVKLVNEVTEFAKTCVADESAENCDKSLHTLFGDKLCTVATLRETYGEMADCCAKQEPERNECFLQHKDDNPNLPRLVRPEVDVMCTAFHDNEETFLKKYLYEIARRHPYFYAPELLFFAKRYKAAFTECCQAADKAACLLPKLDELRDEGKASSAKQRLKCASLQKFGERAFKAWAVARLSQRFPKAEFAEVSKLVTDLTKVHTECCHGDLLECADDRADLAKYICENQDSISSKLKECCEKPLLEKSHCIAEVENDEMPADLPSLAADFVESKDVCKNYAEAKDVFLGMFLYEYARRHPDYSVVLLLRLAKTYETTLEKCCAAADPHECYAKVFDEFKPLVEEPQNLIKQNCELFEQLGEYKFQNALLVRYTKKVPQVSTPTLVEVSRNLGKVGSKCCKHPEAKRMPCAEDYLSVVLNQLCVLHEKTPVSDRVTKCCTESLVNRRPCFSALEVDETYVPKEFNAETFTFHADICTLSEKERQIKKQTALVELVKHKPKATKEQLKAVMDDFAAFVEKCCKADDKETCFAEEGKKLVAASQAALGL
row,Compound,Binding site of the Drug-Albumin Complex (site heading the list of contacting residues)
1,Cc1noc(NS(=O)(=O)c2ccc(N)cc2)c1C [Sulfisoxazole],"Site IB, L115, V116, R117, P118, M123, Y138, I142, Y161, L182,"

# Same assay, conditions: Table I, Phase I; subdomain of HSA where the drug is found in the crystal complex
row,Compound,Albumin Binding Location
1,CC(NC(C)(C)C)C(=O)c1cccc(Cl)c1 (stereo not shown) [Bupropion],"IIA, IIIA"
2,CCCNC(=O)NS(=O)(=O)c1ccc(Cl)cc1 [Chlorpropamide],"IIA, IIIA"
3,CCCCC(=O)O[C@H]1CC[C@H]2[C@@H]3CCc4cc(O)ccc4[C@H]3CC[C@]12C [Estradiol Valerate],IIA
4,CC[C@H](C)C(=O)O[C@H]1C[C@@H](C)C=C2C=C[C@H](C)[C@H](CC[C@@H]3C[C@@H](O)CC(=O)O3)[C@H]21 [Lovastatin],IIA
5,CN1C(CCl)Nc2cc(Cl)c(S(N)(=O)=O)cc2S1(=O)=O (stereo not shown) [Methayclothiazide],IIA-IIB
6,CCc1nn(CCCN2CCN(c3cccc(Cl)c3)CC2)c(=O)n1CCOc1ccccc1 [Nefazodone],IIIA
7,CC1(C)S[C@@H]2[C@H](NC(=O)COc3ccccc3)C(=O)N2[C@H]1C(=O)O [Penicillin V],IIA
8,O=C1NC(=O)C(c2ccccc2)(c2ccccc2)N1 [Phenytoin],IIA
9,C[C@]12C=CC(=O)C=C1CC[C@@H]1[C@@H]2C(=O)C[C@@]2(C)[C@H]1CC[C@]2(O)C(=O)CO [Prednisone],IIA
10,CN(C/C=C/C#CC(C)(C)C)Cc1cccc2ccccc12 [Terbinafine],IIIA
11,CC1=C(/C=C/C(C)=C/C=C/C(C)=C/C(=O)O)C(C)(C)CCC1 [Tertinoin],IIIA

# Same assay, conditions: Table II, Phase II; refined coordinates; listed residues within 5 Å of bound ligand
row,Compound,Binding site of the Drug-Albumin Complex (site heading the list of contacting residues)
1,COc1ccc2cc(CC(=O)O)ccc2c1 [6-MNA],"Site IB, R114, L115, R117, M123, L135, Y138, L139, I142, H146,; also recorded: Site IIA-IIBR209, A210, A213, W214, D324, L327, G328, L331,; also recorded: Site IIIA, L387, I388, N391, C392, F403, L407, R410, Y411, K414,"
2,CC[C@@]1(O)C(=O)OCc2c1cc1n(c2=O)Cc2cc3c([N+](=O)[O-])cccc3nc2-1 [9 Nitro-Camptothecin],"Site IB, L115, V116, R117, Y138, I142, H146, F149, L154, F157,"
3,CC(=O)Oc1ccccc1C(=O)O [Aspirin],"Site IIIB, F509, I513, R521, K524, K525, A528, M548, F551, A552,"
4,O=C(O)CCNC(=O)c1ccc(/N=N/c2ccc(O)c(C(=O)O)c2)cc1 [Balsalazide],"Site IIA-IIIB, S401, K402, N405, A406, L407, V409, R410, K413,"
5,CC[C@@]1(O)C(=O)OCc2c1cc1n(c2=O)Cc2cc3ccccc3nc2-1 [Camptothecin],"Site IB, L115, V116, R117, M123, Y138, I142, H146, F149, L154,"
6,CCOc1nc2cccc(C(=O)OC(C)OC(=O)OC3CCCCC3)c2n1Cc1ccc(-c2ccccc2-c2nn[nH]n2)cc1 (stereo not shown) [Candesartan Cilexitil],"Site II-III, K195, L198, K199, S202, L203, F206, G207, A210, F211,; also recorded: Site IIIA, P384, L387, I388, N391, C392, F395, F403, L407, Y411,; also recorded: Site IIIA-IIIB, L398, Y401, K402, N405, A406, V409, R410, L529,"
7,COc1ccccc1OCCNCC(O)COc1cccc2[nH]c3ccccc3c12 (stereo not shown) [Carvedilol],"Site IIIA, P384, L387, I388, N391, F403, L407, R410, Y411, K414,"
8,CCc1cccc2c3c([nH]c12)C(CC)(CC(=O)O)OCC3 (stereo not shown) [Etodolac],"Site IB, L115, Y138, E141, I142, R145, H146, Y161, L182, L185,; also recorded: Site IIIA, P384, L387, I388, N391, F403, L407, R410, Y411, K414,"
9,CC(C(=O)O)c1ccc(-c2ccccc2)c(F)c1 (stereo not shown) [Flurbiprofen],"Site IIIA, L387, I388, N391, C392, F395, F403, L407, R410, Y411,"
10,Cc1ccc(C)c(OCCCC(C)(C)C(=O)O)c1 [Gemfrirozil],"Site IB, L115, V116, R117, F134, L135, Y138, L139, I142, R145,; also recorded: Site IIIA, L387, R410, Y411, K414, V415, V418, L423, V426, S427,"
11,COc1ccc(Cl)cc1C(=O)NCCc1ccc(S(=O)(=O)NC(=O)NC2CCCCC2)cc1 [Glyburide],"Site IB, L115, V116, R117, P118, M123, A126, F134, K137, Y138,"
12,CC(=O)[C@]1(O)Cc2c(O)c3c(c(O)c2[C@@H](O[C@H]2C[C@H](N)[C@H](O)[C@H](C)O2)C1)C(=O)c1ccccc1C3=O [Idarubicin],"Site IB, F036, F037, L115, V116, R117, P118, V122, M123, A126,"
13,O=C(c1ccccc1)c1ccc2n1CCC2C(=O)O (stereo not shown) [Ketorolac],"Site IB, L115, R117, Y138, I142, H146, F157, Y161, L182, D183,; also recorded: Site IIIA, L387, I388, N391, C392, F403, L407, R410, Y411, K414,"
14,Cc1ccc(Cl)c(Nc2ccccc2C(=O)O)c1Cl [Meclofenamic Acid],"Site IIIA, P384, L387, I388, N391, C392, F403, L407, R410, Y411,"
15,Cc1cccc(Nc2ccccc2C(=O)O)c1C [Mefenamic Acid],"Site IIIA, E383, P384, L387, N391, C392, F403, L407, R410, Y411,"
16,O=C(O)CCc1nc(-c2ccccc2)c(-c2ccccc2)o1 [Oxaprozin],"Site IIIA, P384, L387, I388, N391, C392, F403, L407, R410, Y411,"
17,CC1(C)S[C@@H]2[C@H](NC(=O)Cc3ccccc3)C(=O)N2[C@H]1C(=O)O [Penecillin G],"Site IIA, Y150, K195, K199, F211, W214, A215, R218, L219, R222,"
18,CN1C(C(=O)Nc2ccccn2)=C(O)c2ccccc2S1(=O)=O [Piroxicam],"Site IIA, K195, Q196, L198, K199, F211, W214, A215, R218, L219,"
19,CC(CN1c2ccccc2Sc2ccccc21)N(C)C (stereo not shown) [Promethazine],"Site IIB, D308, F309, N318, E321, A322, V325, F326, N329"
20,CCC(=O)O[C@](Cc1ccccc1)(c1ccccc1)[C@H](C)CN(C)C [Propoxyphene],"Site IIIB, F502, F507, F509, A528, E531, L532, H535, V547, D550,"
21,O=C(c1ccccc1)c1ccc2n1CC[C@H]2C(=O)O [R-Ketorolac],"Site IB, R117, Y138, I142, H146, F149, L154, F157, Y161, L182,"
22,Cc1nc2n(c(=O)c1CCN1CCC(c3noc4cc(F)ccc34)CC1)CCCC2 [Risperidone],"Site IIIA, L387, I388, N391, C392, F403, L407, R410, Y411, K414,"
23,CCc1cccc2c3c([nH]c12)[C@](CC)(CC(=O)O)OCC3 [S-Etodolac],"Site IIIA, P384, L387, I388, N391, F403, L407, R410, Y411, K414,"
24,O=C(c1ccccc1)c1ccc2n1CC[C@@H]2C(=O)O [S-Ketorolac],"Site IIIB, F507, F509, I513, L516, R521, K524, K525, A528, L532,"
25,O=C(Oc1ccccc1C(=O)O)c1ccccc1O [Salsalate],"Site IIIB, F509, I513, R521, K524, K525, A528, M548, F551, A552,"
26,CC1(C)S[C@@H]2[C@H](NC(=O)C(c3ccccc3)S(=O)(=O)O)C(=O)N2[C@H]1C(=O)O (stereo partly shown) [Sulbenicillin],"Site IIA, Y150, K195, K199, W214, R218, L219, R222, L238, H242,"
27,CCCc1nc2c(C)cc(-c3nc4ccccc4n3C)cc2n1Cc1ccc(-c2ccccc2C(=O)O)cc1 [Telmisartan],"Site IB, L115, V116, R117, P118, M123, F134, K137, Y138, E141,"
28,COc1cc([C@@H]2c3cc4c(cc3[C@@H](O[C@@H]3O[C@@H]5CO[C@@H](c6cccs6)O[C@H]5[C@H](O)[C@H]3O)[C@H]3COC(=O)[C@H]23)OCO4)cc(OC)c1O [Teniposide],"Site IB, L115, V116, R117, P118, A126, F134, K137, Y138, E141,"
29,COc1cc(C(=O)NS(=O)(=O)c2ccccc2C)ccc1Cc1cn(C)c2ccc(NC(=O)OC3CCCC3)cc12 [Zafirlukast],"Site IIA, Y150, E153, K195, L198, K199, S202, F211, W214, A215,"
30,Hemin,"Site IB, R114, L115, V116, R117, P118, M123, F134, L135, Y138,"

# Target: T1, human serum albumin
# Assay: not given
# Conditions: prior knowledge on non-drugs such as gases; cited from earlier work
row,Compound,"HSA site with binding affinity, previously known"
1,FC(F)(F)C(Cl)Br (stereo not shown) [halothane],IIA-IIB

# Source: patent publication US20070219767A1, “ATOMIC COORDINATES OF ALBUMIN DRUG COMPLEXES AND METHOD OF USE OF PHARMACEUTICAL DEVELOPMENT” (priority 2003, published 2007)
